# How the values were obtained:
# Assay type in all cases: in vivo, human
# SLC39A8 = assay: Cox proportional hazard model using SLC39A8 ΔCt values in qRT-PCR of NSCLC patients treated with chemotherapy; details: SLC39A8 expression
# From the text: (§1) Patient samples. All NSCLC patients were staged I, II, or IIIA at the time of diagnosis. Tumor tissues were collected in surgical resections and were then formalin fixed or paraffin embedded until used for RNA extraction. Tumor cell content was above 50% for qRT-PCR assays. Those with missing AJCC staging information, missing histology, death within 30 days of resection or from other disease conditions were excluded from further analysis. A total of 122 NSCLC patient samples were obtained from Case Western Reserve University (CWRU) Comprehensive Cancer Center. […] The tissue collection in this study was approved by an Institutional Review Board (IRB) at each institution.
# (§2) RNA extraction, and quality and concentration assessments. […] The quality and integrity of the RNA, the 28S to 18S ratio, and a visual image of the 28S and 18S bands were evaluated on the 2100 Bioanalyzer (Agilent Technologies, CA). […] The RNA concentration of each sample was assessed using a Nanodrop-1000 Spectrophotometer (NanoDrop Tech, Germany). […]
# (§3) Real-time quantitative RT-PCR low-density arrays. […]
# (§4) Three hundred thirty seven (337) tumor samples were analyzed with good RNA quality using TaqMan microfluidic low-density array (LDA) plates on an ABI 7900HT Fast RT-PCR instrument (Applied Biosystems).
# FUT7 = assay: Cox proportional hazard model using FUT7 ΔCt values in qRT-PCR of NSCLC patients treated with chemotherapy; details: FUT7 expression
# From the text: Patient samples. All NSCLC patients were staged I, II, or IIIA at the time of diagnosis. Tumor tissues were collected in surgical resections and were then formalin fixed or paraffin embedded until used for RNA extraction. Tumor cell content was above 50% for qRT-PCR assays. Those with missing AJCC staging information, missing histology, death within 30 days of resection or from other disease conditions were excluded from further analysis. A total of 122 NSCLC patient samples were obtained from Case Western Reserve University (CWRU) Comprehensive Cancer Center. Total RNA of good quality was extracted from 89 tumor specimens. […]
# RNA extraction, and quality and concentration assessments. […] The quality and integrity of the RNA, the 28S to 18S ratio, and a visual image of the 28S and 18S bands were evaluated on the 2100 Bioanalyzer (Agilent Technologies, CA). RNA assessed as having good quality from […] tumor samples was included for further analysis. The RNA concentration of each sample was assessed using a Nanodrop-1000 Spectrophotometer (NanoDrop Tech, Germany). […]
# as §3
# Three hundred thirty seven (337) tumor samples were analyzed with good RNA quality using TaqMan microfluidic low-density array (LDA) plates on an ABI 7900HT Fast RT-PCR instrument (Applied Biosystems). Total RNA samples were analyzed on an Agilent 2100 Bioanalyzer RNA 6000 Nano LabChip. […]
# ABCC4 = assay: Cox proportional hazard model using ABCC4 ΔCt values in qRT-PCR of NSCLC patients treated with chemotherapy; details: ABCC4 expression; patients treated with the named agent(s)
# From the text: as §1, §2, §3, §4
Compound,Chemosensitive/resistant (SLC39A8),Chemosensitive/resistant (FUT7),Chemosensitive/resistant (ABCC4)
"Nc1nc2[nH]cc(CCc3ccc(C(=O)N[C@@H](CCC(=O)O)C(=O)O)cc3)c2c(=O)[nH]1 [Alimta, pemetrexed]",Chemoresistant,,
"N.N.O=C([O-])C1(C(=O)[O-])CCC1.[Pt+2] [Carboplatin, carboplatin]",,Chemosensitive,
"CC(=O)O[C@H]1C(=O)[C@@]2(C)[C@H]([C@H](OC(=O)c3ccccc3)[C@]3(O)C[C@H](OC(=O)[C@H](O)[C@@H](NC(=O)c4ccccc4)c4ccccc4)C(C)=C1C3(C)C)[C@]1(OC(C)=O)CO[C@@H]1C[C@@H]2O [Taxol, paclitaxel]",Chemoresistant,,Chemoresistant

# Reference: patent US20230106465A1, “7-Gene Prognostic and Predictive Assay for Non-Small Cell Lung Cancer in Formalin Fixed and Paraffin Embedded Samples” (West Virginia University, priority 2019, published 2023)
